Reference: patent publication US8426353B2, “Process for preparing polyurea microcapsules” (Firmenich SA, priority 2008, dated 2013)
Where two headings read alike, the source gives them in different places.

Experiments:
[1] = GC-MS analysis of perfume leaked out of the capsules during one month storage in concentrated fabric softener; assay type: physicochemical; conditions: for Percentage of perfume having leaked out of the capsules upon one month storage, % In fabric softener at 22° C. / Percentage of perfume having leaked out of the capsules upon one month storage, % In fabric softener at 37° C.: perfume of Example 9 encapsulated per Example 2, capsules at 1.25%; for Percentage of perfume having leaked out of the capsules upon one month storage, % In fabric softener at 22° C.: one month at 22° C.; for Percentage of perfume having leaked out of the capsules upon one month storage, % In fabric softener at 37° C. / Percentage of ingredient having leaked out of the capsules during one month storage, % In fabric softener 37° C.: one month at 37° C.; for Percentage of ingredient having leaked out of the capsules during one month storage, % In fabric softener 37° C.: perfume of Example 6 encapsulated per Example 2, capsules at 1.25%
Method: The concentrated fabric softener base was prepared by admixing the ingredients listed in Table 4, in the amounts indicated.

[2] = GC-MS analysis of perfume leaked out of the capsules during one month storage in concentrated liquid detergent; assay type: physicochemical; conditions: for Percentage of perfume having leaked out of the capsules upon one month storage, % In Concentrated Liquid Detergent at 22° C. / Percentage of perfume having leaked out of the capsules upon one month storage, % In Concentrated Liquid Detergent at 37° C.: perfume of Example 9 encapsulated per Example 2, capsules at 1.25% in Tide 2x Concentrated HE Free; for Percentage of perfume having leaked out of the capsules upon one month storage, % In Concentrated Liquid Detergent at 22° C. / Percentage of ingredient having leaked out of the capsules during one month storage, % In concentrated Liquid Detergent 22° C.: one month at 22° C.; for Percentage of perfume having leaked out of the capsules upon one month storage, % In Concentrated Liquid Detergent at 37° C. / Percentage of ingredient having leaked out of the capsules during one month storage, % In concentrated Liquid Detergent 37° C.: one month at 37° C.; for Percentage of ingredient having leaked out of the capsules during one month storage, % In concentrated Liquid Detergent 22° C. / Percentage of ingredient having leaked out of the capsules during one month storage, % In concentrated Liquid Detergent 37° C.: perfume of Example 6 encapsulated per Example 2, capsules at 1.25% in Tide 2x Concentrated HE Free
Excerpt: The concentrated liquid detergent base was a commercially available Tide® 2× Concentrated HE Free of perfume & dye (trademark of Procter and Gamble, USA).
The concentrated liquid detergent base was the commercially available Tide® 2× Concentrated HE Free of perfume & dye (trademark of Procter and Gamble, USA).

[3] = LogP of the perfume ingredients
[4] = ingredients of the perfume of Example 6 (Table 1)
[5] = ingredients of the perfume of Example 9 (Table 9)

| SMILES | Percentage of perfume having leaked out of the capsules upon one month storage, % In fabric softener at 22° C. [1] [%] | Percentage of perfume having leaked out of the capsules upon one month storage, % In fabric softener at 37° C. [1] [%] | Percentage of perfume having leaked out of the capsules upon one month storage, % In Concentrated Liquid Detergent at 22° C. [2] [%] | Percentage of perfume having leaked out of the capsules upon one month storage, % In Concentrated Liquid Detergent at 37° C. [2] [%] | LogP [3] | Percentage of ingredient having leaked out of the capsules during one month storage, % In fabric softener 37° C. [1] [%] | Percentage of ingredient having leaked out of the capsules during one month storage, % In concentrated Liquid Detergent 22° C. [2] [%] | Percentage of ingredient having leaked out of the capsules during one month storage, % In concentrated Liquid Detergent 37° C. [2] [%] | LogP [3, 4] | LogP [3, 5] |
| --- | --- | --- | --- | --- | --- | --- | --- | --- | --- | --- |
| CC(=O)O[C@@H]1C[C@H]2CC[C@]1(C)C2(C)C (racemic) [Isobornyl acetate] | 4 | 12 | 4 | 21 | 3.86 | – | – | – | – | – |
| CC12CCC(CC1)C(C)(C)O2 [1,8-Cineole] | – | – | – | – | – | 11 | 2 | 21 | 3.13 | – |
| CC(C)=CCCC1=CCC(C)(C=O)CC1 (centres unmarked) [1-Methyl-4-(4-methyl-3-pentenyl)-3-cyclohexene-1-carbaldehyde] | – | – | – | – | 5.19 | 1 | 2 | 20 | – | – |
| CC1=CC(C)C(C=O)CC1 (centres unmarked) [2,4-Dimethyl-3-cyclohexene-1-carbaldehyde] | 20 | 40 | 20 | 70 | – | – | – | – | – | – |
| C=CCOC(=O)CCCCCC [Allyl heptanoate] | 46 | 98 | 46 | 100 | 3.67 | – | – | – | – | – |
| CC1(C)CCCC2(C)C1CCC1(C)OCCC12 (centres unmarked) [Cetalox ®, dodecahydro-3a,6,6,9a-tetramethyl-naphtho[2,1-b]furan] | – | – | – | – | – | 3 | 0 | 4 | – | – |
| C=CCOC(=O)COC1CCCCC1 [Cyclogalbanate, Allyl (cyclohexyloxy)-acetate] | 15 | 82 | 15 | – | – | – | – | – | – | – |
| O=C(OC1CCCCC1)c1ccccc1O [Cyclohexyl salicylate] | – | – | – | – | 4.87 | 7 | 1 | 25 | – | – |
| CC(=O)OC(C)(C)C1CCC(C)CC1 (centres unmarked) [Dihydroterpenyl acetate] | 2 | 0 | 2 | 16 | – | 4 | 1 | 14 | 4.42 | 4.42 |
| CC1CCC(C(C)(C)O)CC1 (centres unmarked) [Dihydroterpineol] | 13 | 85 | 13 | – | – | – | – | – | – | 3.42 |
| CCCC(C)C(=O)OCC (centres unmarked) [Ethyl 2-methyl-pentanoate] | 48 | 99 | 48 | 99 | – | – | – | – | – | 2.76 |
| CC(=O)OC/C=C(\C)CCC=C(C)C [Geranyl acetate] | 10 | 53 | 10 | 77 | 4.48 | – | – | – | – | – |
| O=C1CCCCCCCCC/C=C/CCCO1 [Habanolide ®, pentadecenolide] | 0 | 0 | 0 | 0 | – | 1 | 0 | 0 | – | – |
| CCCCCCC(C=O)=Cc1ccccc1 [Hexyl cinnamic aldehyde] | 2 | 18 | 2 | 46 | 4.82 | – | – | – | – | – |
| CC(=O)C1(C)CC2=C(CCCC2(C)C)CC1C (centres unmarked) [Iso E super ®, 1-(octahydro-2,3,8,8-tetramethyl-2-naphtalenyl)-1-ethanone] | 2 | 4 | 2 | 9 | – | 4 | 1 | 4 | 4.71 | 4.71 |

Further lines, results first:

| Percentage of perfume having leaked out of the capsules upon one month storage, % In fabric softener at 22° C. [1] [%] | Percentage of perfume having leaked out of the capsules upon one month storage, % In fabric softener at 37° C. [1] [%] | Percentage of perfume having leaked out of the capsules upon one month storage, % In Concentrated Liquid Detergent at 22° C. [2] [%] | Percentage of perfume having leaked out of the capsules upon one month storage, % In Concentrated Liquid Detergent at 37° C. [2] [%] | LogP [3] | Percentage of ingredient having leaked out of the capsules during one month storage, % In fabric softener 37° C. [1] [%] | Percentage of ingredient having leaked out of the capsules during one month storage, % In concentrated Liquid Detergent 22° C. [2] [%] | Percentage of ingredient having leaked out of the capsules during one month storage, % In concentrated Liquid Detergent 37° C. [2] [%] | LogP [3, 4] | LogP [3, 5] | SMILES |
| --- | --- | --- | --- | --- | --- | --- | --- | --- | --- | --- |
| – | – | – | – | 7.17 | – | – | – | – | – | CCCCCCCCCCCCCC(=O)OC(C)C [Isopropyl myristate] |
| 0 | 7 | 0 | 18 | 4.36 | 3 | 1 | 14 | – | 4.36 | CC(C=O)Cc1ccc(C(C)(C)C)cc1 (centres unmarked) [Lilial ®, 3-(4-tert-butylphenyl)-2-methylpropanal] |
| – | – | – | – | 4.42 | 5 | 1 | 11 | – | – | CC(=O)OC1CCC(C(C)(C)C)CC1 (centres unmarked) [Lorysia ®, 4-(1,1-dimethylethyl)-1-cyclohexyl acetate] |
| – | – | – | – | – | 5 | 1 | 19 | 5.05 | – | CC1=CCC(C(C)CC2CCCC2=O)CC1 (stereo not drawn) [Nectalactone, (1′R)-2-[2-(4′-methyl-3′-cyclohexen-1′-yl)propyl]cyclopentanone] |
| – | – | – | – | – | 3 | – | – | 4.28 | – | CC1(O)CCC2C(=CCCC2(C)C)C1 (centres unmarked) [Octalynol] |
| 3 | 8 | 3 | 17 | – | – | – | – | – | – | CC(=O)OC1CCCCC1C(C)(C)C (centres unmarked) [Verdox ®, 2-Tert-butyl-1-cyclohexyl acetate] |
| 3 | 13 | 3 | 27 | – | 5 | 1 | 14 | – | – | CC(=O)/C=C/C1=C(C)CCCC1(C)C [β-Ionone] |
